Measured values reported in ChEMBL document CHEMBL1201862, “PubChem BioAssay data set” (2004).
Calls of active or inactive are those of the source.

Experiments:
Vero [1] = assay: antiviral protection of cells from WNV – synthesized analogs, SAR follow-up (AID 2238); format: functional, cell-based; conditions: Chlorocebus sabaeus
[2] = A Cell Based Assay for the Identification of Probe candidate Compounds with Anti- Venezuelan Equine Encephalitis virus. [Related pubchem assays: 2409, 2419, 1621, 2238, 2405, 2024, 2065, 2402, 2414, 1635, 1650, 2244 ]; format: functional
Vero [3] = assay: Vero cell viability after compound exposure – synthesized analogs, set II, cytotoxicity control for West Nile virus antiviral project, SAR follow-up (AID 2402); format: functional; conditions: Chlorocebus sabaeus
Vero [4] = assay: Vero 76 cell viability after compound exposure – Vero 76 cells, synthesized analogs, cytotoxicity control for West Nile virus antiviral project, SAR follow-up (AID 2414); format: functional; conditions: Chlorocebus sabaeus
Vero [5] = assay: inhibition of WNV-induced cytopathic effect – cell-based, CPE readout (AID 1621); format: functional; conditions: Chlorocebus sabaeus
Vero [6] = assay: cells; format: functional; conditions: Chlorocebus sabaeus
Vero [7] = assay: host cell viability loss, Vero E6 – synthesized analogs, cytotoxicity control for West Nile virus antiviral project, SAR follow-up (AID 2244); format: functional; conditions: Chlorocebus sabaeus
Coagulation factor XII = target: T1, Coagulation factor XII (Homo sapiens, UniProt P00748); assay: activated coagulation factor XII inhibitor potency, concentration-effect curve, cell-free (AID 716); format: functional
T1 sequence (P00748 whole entry): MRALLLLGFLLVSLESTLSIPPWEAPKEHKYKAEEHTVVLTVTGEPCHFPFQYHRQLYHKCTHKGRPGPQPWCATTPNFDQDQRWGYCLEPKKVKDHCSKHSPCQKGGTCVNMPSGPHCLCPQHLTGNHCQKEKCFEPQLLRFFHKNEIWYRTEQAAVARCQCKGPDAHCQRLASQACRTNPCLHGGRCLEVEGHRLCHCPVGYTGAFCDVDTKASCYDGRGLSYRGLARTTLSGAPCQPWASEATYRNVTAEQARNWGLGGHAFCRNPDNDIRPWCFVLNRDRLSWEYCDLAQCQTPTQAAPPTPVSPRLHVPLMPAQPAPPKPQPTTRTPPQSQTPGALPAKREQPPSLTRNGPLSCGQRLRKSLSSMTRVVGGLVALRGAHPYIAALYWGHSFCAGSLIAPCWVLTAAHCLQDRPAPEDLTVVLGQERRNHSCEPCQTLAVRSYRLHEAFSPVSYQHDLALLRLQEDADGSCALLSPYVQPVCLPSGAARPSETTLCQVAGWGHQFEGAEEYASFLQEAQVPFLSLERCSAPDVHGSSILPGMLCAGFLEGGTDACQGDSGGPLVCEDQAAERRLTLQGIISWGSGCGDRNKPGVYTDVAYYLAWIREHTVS

[8] = target: Delta-type opioid receptor (Homo sapiens, UniProt P41143); assay: SAR Analysis of Antagonists of the DOR Receptor using an Image-Based Assay - Set 3. [Related pubchem assays (depositor defined):AID1777, AID1785]; format: functional;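 also: U2OS cells expressing DOR1 and beta-arrestin GFP stimulated with 100 nM SNC80; imaging of GFP-tagged beta-arrestin moving into spots after receptor activation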
Sequence of Delta-type opioid receptor (P41143 whole entry): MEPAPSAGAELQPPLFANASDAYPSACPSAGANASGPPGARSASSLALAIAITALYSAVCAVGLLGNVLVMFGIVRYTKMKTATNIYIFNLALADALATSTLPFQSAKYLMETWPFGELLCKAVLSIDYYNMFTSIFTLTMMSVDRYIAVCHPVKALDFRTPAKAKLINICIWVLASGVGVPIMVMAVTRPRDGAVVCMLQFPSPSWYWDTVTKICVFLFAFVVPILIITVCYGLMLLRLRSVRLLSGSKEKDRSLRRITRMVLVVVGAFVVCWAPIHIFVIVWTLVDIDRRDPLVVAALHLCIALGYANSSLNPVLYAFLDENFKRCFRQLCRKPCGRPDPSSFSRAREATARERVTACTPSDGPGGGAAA

[9] = target: T2, Kappa-type opioid receptor (Homo sapiens, UniProt P41145); assay: SAR analysis of Antagonists of the Kappa Opioid Receptor (KOR) using an Image-Based Assay - Set 3. [Related pubchem assays (depositor defined):AID1777, AID1785]; format: functional
T2 sequence (P41145 whole entry): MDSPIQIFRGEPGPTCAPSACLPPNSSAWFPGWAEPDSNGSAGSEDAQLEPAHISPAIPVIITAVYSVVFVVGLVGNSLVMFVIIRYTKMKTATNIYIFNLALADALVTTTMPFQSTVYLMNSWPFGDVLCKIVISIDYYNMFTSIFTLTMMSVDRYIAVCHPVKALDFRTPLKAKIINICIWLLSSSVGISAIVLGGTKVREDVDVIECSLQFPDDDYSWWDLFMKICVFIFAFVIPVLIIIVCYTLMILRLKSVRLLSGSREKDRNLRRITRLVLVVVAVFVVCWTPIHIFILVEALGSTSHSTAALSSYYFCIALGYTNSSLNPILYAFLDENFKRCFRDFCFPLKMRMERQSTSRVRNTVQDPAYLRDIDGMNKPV

Mu-type opioid receptor = Mu-type opioid receptor (Homo sapiens, UniProt P35372); assay: SAR Analysis of Antagonists of the MOR Receptor using an Image-Based Assay - Set 3. [Related pubchem assays (depositor defined):AID1777, AID1785, AID1786, AID1966, AID2133, AID2136, AID2284, AID2285, AID2420]; format: functional
Sequence of Mu-type opioid receptor (P35372 whole entry): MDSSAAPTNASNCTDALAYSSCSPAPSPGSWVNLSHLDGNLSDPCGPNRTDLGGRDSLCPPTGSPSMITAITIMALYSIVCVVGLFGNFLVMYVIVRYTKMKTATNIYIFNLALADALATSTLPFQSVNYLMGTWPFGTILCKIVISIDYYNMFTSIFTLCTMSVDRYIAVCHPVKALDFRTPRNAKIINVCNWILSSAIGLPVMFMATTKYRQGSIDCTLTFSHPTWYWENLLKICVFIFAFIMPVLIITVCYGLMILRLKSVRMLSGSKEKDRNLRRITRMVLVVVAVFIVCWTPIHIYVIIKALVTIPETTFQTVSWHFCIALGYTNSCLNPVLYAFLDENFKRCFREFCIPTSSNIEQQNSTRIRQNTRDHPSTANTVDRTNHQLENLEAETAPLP

[10] = target: T2, Kappa-type opioid receptor; assay: SAR analysis of small molecule antagonists of the kappa opioid receptor via a luminescent beta-arrestin assay - Set 3. [Related pubchem assays (depositor defined):AID1777, AID1778, AID1785, AID1786, AID1966, AID2133, AID2136, AID2285, AID2495]; format: functional
[11] = Luminescence Cell-Based Dose Response HTS to Identify Activators of Luciferase Translation or Activity in H4 […] Cells. [Related pubchem assays: 1829 (Project Summary), 1814 (Primary HTS)]; format: functional
[12] = Luminescence Cell-Based Dose Confirmation HTS to Identify Activators of 5'UTR Stem-Loop Driven Alpha-Synuclein mRNA Translation in H4 Neuroglioblastoma Cells. [Related pubchem assays: 1829 (Project Summary), 1814 (Primary HTS)]; format: functional
H4 = assay: Luminescence Cell-Based Dose Response HTS to Identify Activators of 5'UTR Stem-Loop Driven Prion Protein mRNA Translation in H4 Neuroglioblastoma Cells. [Related pubchem assays: 1829 (Project Summary), 1814 (Primary HTS)]; format: functional; conditions: Homo sapiens
[13] = Luminescence Cell-Based Dose Retest to Confirm Activators of 5'UTR Stem-Loop Driven Alpha-Synuclein mRNA Translation in H4 Neuroglioblastoma Cells. [Related pubchem assays (depositor defined):AID1813, AID1829]; format: functional
[14] = Luminescence Cell-Based Dose Response HTS to Identify Activators of 5'UTR Stem-Loop Driven Prion Protein mRNA Translation in H4-C Neuroglioblastoma Cells. [Related pubchem assays: 1829 (Project Summary), 1814 (Primary HTS)]; format: functional
[15] = Luminescence Cell-Based Dose Response HTS to Identify Activators of Luciferase Translation or Activity in H4-C Neuroglioblastoma Cells. [Related pubchem assays: 1829 (Project Summary), 1814 (Primary HTS)]; format: functional
[16] = target: T3, RNA-binding protein pos-1 (Caenorhabditis elegans, UniProt G5EF15); assay: disruptors of C. elegans POS-1 RNA interaction – biochemical, fluorescence polarization, dose response (AID 1964);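 also: purified POS-1 fused to maltose binding protein made in E. coli; potency of compounds blocking POS-1 binding to fluorescent RNA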
T3 sequence (G5EF15 whole entry): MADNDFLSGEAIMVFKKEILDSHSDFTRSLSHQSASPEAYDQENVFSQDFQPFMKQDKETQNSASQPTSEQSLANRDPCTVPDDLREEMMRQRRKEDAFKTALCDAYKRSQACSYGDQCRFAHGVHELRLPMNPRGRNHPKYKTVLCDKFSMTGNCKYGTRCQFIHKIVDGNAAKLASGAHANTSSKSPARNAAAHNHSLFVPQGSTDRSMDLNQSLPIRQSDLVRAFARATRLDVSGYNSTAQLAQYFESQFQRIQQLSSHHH

[17] = target: T4, Zinc finger protein mex-5 (Caenorhabditis elegans, UniProt Q9XUB2); assay: potency of MEX-5 RNA-binding blockers – biochemical, C. elegans, fluorescence polarization, dose response (AID 1960)
T4 sequence (Q9XUB2 whole entry): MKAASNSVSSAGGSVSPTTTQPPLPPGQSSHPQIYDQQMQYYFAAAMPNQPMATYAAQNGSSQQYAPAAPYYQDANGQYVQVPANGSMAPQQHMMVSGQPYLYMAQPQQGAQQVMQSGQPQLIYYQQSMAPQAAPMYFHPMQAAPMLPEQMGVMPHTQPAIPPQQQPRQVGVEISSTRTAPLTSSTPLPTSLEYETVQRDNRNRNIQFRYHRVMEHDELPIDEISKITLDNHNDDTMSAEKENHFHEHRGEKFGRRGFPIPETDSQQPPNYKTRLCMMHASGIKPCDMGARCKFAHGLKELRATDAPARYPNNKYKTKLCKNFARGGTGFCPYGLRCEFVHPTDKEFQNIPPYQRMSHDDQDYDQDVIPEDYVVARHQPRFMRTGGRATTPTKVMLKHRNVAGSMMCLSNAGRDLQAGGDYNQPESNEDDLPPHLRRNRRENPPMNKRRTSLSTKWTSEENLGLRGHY

Hexokinase = Hexokinase (Trypanosoma brucei, UniProt Q38C41); assay: Confirmation assay for inhibitors of Trypanosoma brucei hexokinase 1-Analogue-first series. [Related pubchem assays (depositor defined):AID1430, AID1632, AID2516, AID2560, AID2579, AID2600, AID449725, AID492951]; format: functional
Sequence of Hexokinase (Q38C41 whole entry): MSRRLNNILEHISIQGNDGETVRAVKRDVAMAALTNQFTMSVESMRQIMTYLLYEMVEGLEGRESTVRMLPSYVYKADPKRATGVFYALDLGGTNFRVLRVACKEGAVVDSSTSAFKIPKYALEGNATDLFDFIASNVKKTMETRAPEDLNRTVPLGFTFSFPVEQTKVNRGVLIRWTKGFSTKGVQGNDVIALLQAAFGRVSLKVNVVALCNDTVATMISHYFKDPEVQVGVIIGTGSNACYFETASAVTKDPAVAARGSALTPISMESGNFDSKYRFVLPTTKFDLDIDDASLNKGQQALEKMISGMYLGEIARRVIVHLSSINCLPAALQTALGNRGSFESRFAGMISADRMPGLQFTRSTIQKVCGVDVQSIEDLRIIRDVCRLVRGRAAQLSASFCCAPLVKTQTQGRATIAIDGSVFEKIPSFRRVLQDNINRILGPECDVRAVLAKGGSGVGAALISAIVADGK

Structure (SMILES): CC1CCCN(CCCNC(=O)c2cc3c(s2)-c2ccccc2OC3)C1 (configuration not stated)
- IC50 (Vero [1]): > 40 µM (active)
- IC50 [2]: 9.94 µM (active)
- CC50 (Vero [3]): 9.23 µM (active)
- CC50 (Vero [4]): 19.6 µM (active)
- IC50 (Vero [5]): 18.9 µM (active)
- CC50 (Vero [6]): > 25 µM (active)
- CC50 (Vero [7]): 6.78 µM (active)

Structure (SMILES): Cc1nnc(NC(=O)C2CCN(c3cnccn3)CC2)s1
- IC50 (Coagulation factor XII): > 50 µM (inactive)

Structure (SMILES): CCc1ccc(S(=O)(=O)NCc2ccc(C(=O)NCCN(Cc3ccc(OC)cc3)C(C)C)cc2)cc1
- IC50 [8]: > 32 µM (inactive)
- IC50 [9]: 264 nM (active)
- IC50 (Mu-type opioid receptor): > 32 µM (inactive)
- IC50 [10]: 873 nM (active)

Structure (SMILES): COc1cc(/C=C2/C(=O)ON=C2C)ccc1OCc1ccccc1F
- EC50 [11]: 39.6 µM (active)
- EC50 [12]: 127 nM (active)
- EC50 (H4): > 120 µM (not active)
- EC50 [13]: 901 nM (active)
- EC50 [14]: 10.3 µM (active)
- EC50 [15]: 2.06 µM (active)
- EC50 [16]: 60.2 µM (active)
- CC50 (Vero [6]): 22.3 µM (active)
- EC50 [17]: > 300 µM (inconclusive)

Structure (SMILES): O=C(Nc1ccccc1)c1cc(F)ccc1S
- IC50 (Hexokinase): > 25 µM (inactive)
